Values after ≈ are worked out from the molar mass of the structure shown.
Columns and labels:
[1] = system: glucosyltransferase; experiment: Glucosyltransferase inhibition activity (insoluble glucan, absorbance at 550 nm); assay type: biochemical, S. mutans MT8148; details: 0.15 ml of 2,000 ppm sample solution in 3 ml total volume; pH 6.0, 37° C., 3 hours; control water
Description: As an enzyme solution, was used an extract which was obtained by culturing S. mutans MT8148 strain on Todd-Hewitt medium and then extracting hyphae with 8M urea in accordance with the method proposed by Hamada et al. [S. Hamada et al., J. Gen. Microbiol., 35, 335- 344 (1999 )].
A reaction system was prepared by adding 0.15 ml of an aqueous solution of a sample, said solution having been prepared to contain the sample at the concentration of 2,000 ppm, the enzyme solution prepared from the S. mutans strain and water to 0.6 ml of 500 mM sodium phosphate buffer which had pH 6.0 and contained 5% of sucrose, 0.5% of dextran T10 and 0.5% of sodium azide. The water was added in an amount to give a total volume of 3 ml. They were reacted in a glass test tube. In the above measurement, the amount of the enzyme was set such that the absorbance at 550 nm became about 1.0 when reacted at 37° C. for 3 hours.
Resultant insoluble glucan was subjected to ultrasonic disintegration and the; absorbance (A) at 550 nm was measured. Using as control (B) the absorbance obtained from the use of water in place of the sample solution, the inhibition rate (%) was determined in accordance with the following calculation formula: [formula] (Measurement results )
The glucosyltransferase inhibition activities of the extracts of the various fermented tea leaves, said extracts having been obtained in Examples 1, 2 and 3, and of caffeine and catechins, which are representative components of tea leaves, were measured using the above reaction system.

[2] = Solubility in distilled water; assay type: physicochemical; details: for solubility: distilled water, water
Description: Sugar: Refined sugar (prime grade)
Palatinose: Crystalline palatinose

[3] = system: glucosyltransferase; experiment: Anti-glucan formation test; assay type: biochemical, S. mutans MT8148; details: 0.3 ml of 10% sample solution in 3 ml; pH 6.0, 37° C., 3 hours; relative to sugar
Description: To a mixture consisting of 0.3 ml of a 10% sample solution, 0.3 ml of 1M sodium phosphate buffer-which had pH 6.0 and contained 1.0% of dextran T10 and 1.0% of sodium azide--and a glucosyltransferase enzyme solution, water was added in an amount to give a total volume of 3 ml so that a reaction system was prepared. They were reacted in a glass test tube.
Insoluble glucan thus formed was subjected to ultrasonic disintegration, and the absorbance (A) at 550 nm was measured.
As the glucosyltransferase enzyme solution, was used an extract which was obtained by culturing S. mutans MT8148 strain on Todd-Hewitt medium and then extracting hyphae with 8M urea in accordance with the method proposed by Hamada et al. [S. Hamada et al., J. Gen. Microbiol., 135, 335-344 (1989)].

[4] = system: S. mutans MT8148 strain; experiment: Anti-plaque test (in vitro plaque formation); assay type: cell-based; details: sample 5% in Dulbecco's modified Eagle's medium, 37° C., 1 day, anaerobic; Average ± S.D.; anticarious sugar of Example 10
Description: The test was carried out in the following manner. Culture media were prepared by adding the test samples at the concentration of 5% to Dulbecco's modified Eagle's medium, respectively. 6-ml Portions of the media were added to glass test tubes, respectively, to which S. mutans MT8148 strain was planted. After the cells were cultured at 37° C. for 1 day under anaerobic conditions, the amounts of plaque adhered on the walls of the respective test tubes were weighed.

## Oc1cc(O)c2c(c1)O[C@H](c1cc(O)c(O)c(O)c1)[C@H](O)C2 [Epigallocatechin]
[1]
  Inhibition rate, %: 11%

## Oc1cc(O)c2c(c1)OC(c1ccc(O)c(O)c1)C(O)C2 (stereo not shown) [Catechin]
[1]
  Inhibition rate, %: 13%

## O=C(O[C@@H]1Cc2c(O)cc(O)cc2O[C@@H]1c1ccc(O)c(O)c1)c1cc(O)c(O)c(O)c1 [Epicatechin gallate]
[1]
  Inhibition rate, %: 19%

## OC[C@H]1O[C@@](CO)(O[C@H]2O[C@H](CO)[C@@H](O)[C@H](O)[C@H]2O)[C@@H](O)[C@@H]1O [Sugar]
[2]; 10° C.
  solubility: 630 mg/mL (≈ 1840 mM)
[2]; 30° C.
  solubility: 680 mg/mL (≈ 1990 mM)
[2]; 50° C.
  solubility: 720 mg/mL (≈ 2100 mM)
[2]; 70° C.
  solubility: 740 mg/mL (≈ 2160 mM)

## Oc1cc(O)c2c(c1)O[C@H](c1ccc(O)c(O)c1)[C@H](O)C2 [Epicatechin]
[1]
  Inhibition rate, %: 14%

## OC[C@H]1O[C@H](OC[C@H]2OC(O)(CO)[C@@H](O)[C@@H]2O)[C@H](O)[C@@H](O)[C@@H]1O (stereo partly shown) [Palatinose, palatinose]
[3]
  Relative amount of formed glucan, %: 2%
[2]
  Solubility (in words): low solubility especially at low temperatures
[2]; 10° C.
  solubility: 210 mg/mL (≈ 614 mM)
[2]; 30° C.
  solubility: 320 mg/mL (≈ 935 mM)
[2]; 50° C.
  solubility: 440 mg/mL (≈ 1290 mM)
[2]; 70° C.
  solubility: 580 mg/mL (≈ 1690 mM)
[4]
  Amount of plaque formed: 2.01 ± 0.22 mg

## Oc1cc(O)c2c(c1)O[C@H](c1cc(O)c(O)c(O)c1)[C@@H](O)C2 [Gallocatechin]
[1]
  Inhibition rate, %: 15%

Source: patent publication US5409692A, “Glucosyltransferase inhibitors, as well as dental caries prevention methods and anticarious foods using the same” (priority 1990, dated 1995)
